Results published in a compilation of properties of binary mixtures (doi:10.1021/acs.iecr.1c02970).

Assay: xn = mol fraction of the nth substance listed
Details: 100 kPa

CC[n+]1ccn(C)c1.CS(=O)(=O)[O-] + O
Details	electrical conductivity [S/m]	speed of sound [m/s]	viscosity [mPa·s]
293.15 K, x1 = 0.002	0.693	–	–
293.15 K, x1 = 0.0177	–	–	1.439
293.15 K, x1 = 0.0181	–	1596.2	–
293.15 K, x1 = 0.028	4.07	–	–
293.15 K, x1 = 0.0357	–	–	1.98
293.15 K, x1 = 0.0375	–	1686.1	–
293.15 K, x1 = 0.0489	4.55	–	–
293.15 K, x1 = 0.07	4.39	–	–
293.15 K, x1 = 0.0749	–	1801.7	–
293.15 K, x1 = 0.0945	–	1837.1	–
293.15 K, x1 = 0.1089	–	–	5.395
293.15 K, x1 = 0.1122	3.62	–	–
293.15 K, x1 = 0.113	–	1857.6	–
293.15 K, x1 = 0.1833	–	1882.3	–
293.15 K, x1 = 0.1848	–	–	10.55
293.15 K, x1 = 0.2034	2.29	–	–
293.15 K, x1 = 0.2741	–	1871.1	–
293.15 K, x1 = 0.3671	–	1850.8	–
293.15 K, x1 = 0.3752	1.19	–	–
293.15 K, x1 = 0.4263	–	–	34.52
293.15 K, x1 = 0.6064	–	1809.5	–
293.15 K, x1 = 0.6951	–	1800.2	–
293.15 K, x1 = 0.7708	–	1793	–
293.15 K, x1 = 0.9157	–	1780.8	–
293.15 K, x1 = 0.9339	0.201	–	–
293.15 K, x1 = 0.9357	–	–	214.4
293.15 K, x2 = 0.0082	–	1779.6	–
298.15 K, x1 = 0.0375	–	1686.1	–
298.15 K, x1 = 0.056	–	1749	–
298.15 K, x1 = 0.0749	–	1794.6	–
298.15 K, x1 = 0.0945	–	1828.1	–
298.15 K, x1 = 0.113	–	1847.4	–
298.15 K, x1 = 0.2741	–	1859.1	–
298.15 K, x1 = 0.3671	–	1839	–
298.15 K, x1 = 0.489	–	1815.1	–
298.15 K, x1 = 0.6064	–	1797	–
298.15 K, x1 = 0.6951	–	1787.9	–
298.15 K, x1 = 0.9157	–	1767.6	–
298.15 K, x2 = 0.0082	–	1766.9	–
303.15 K, x1 = 0.002	0.852	–	–
303.15 K, x1 = 0.0165	4.03	–	–
303.15 K, x1 = 0.0181	–	1607.4	–
303.15 K, x1 = 0.028	5.09	–	–
303.15 K, x1 = 0.0357	–	–	1.541
303.15 K, x1 = 0.0375	–	1685.5	–
303.15 K, x1 = 0.0489	5.75	–	–
303.15 K, x1 = 0.0674	–	–	2.309
303.15 K, x1 = 0.07	5.61	–	–
303.15 K, x1 = 0.0749	–	1787.3	–
303.15 K, x1 = 0.0945	–	1818.7	–
303.15 K, x1 = 0.1089	–	–	3.994
303.15 K, x1 = 0.113	–	1837.3	–
303.15 K, x1 = 0.1833	–	1859.5	–
303.15 K, x1 = 0.1848	–	–	7.58
303.15 K, x1 = 0.2034	3.13	–	–
303.15 K, x1 = 0.2741	–	1847.2	–
303.15 K, x1 = 0.3671	–	1827.1	–
303.15 K, x1 = 0.3752	1.67	–	–
303.15 K, x1 = 0.4263	–	–	23.25
303.15 K, x1 = 0.489	–	1802.7	–
303.15 K, x1 = 0.6951	–	1775.8	–
303.15 K, x1 = 0.7708	–	1767.9	–
303.15 K, x1 = 0.9157	–	1755.3	–
303.15 K, x1 = 0.9339	0.351	–	–
303.15 K, x2 = 0.0082	–	1754.4	–
308.15 K, x1 = 0.0181	–	1611.3	–
308.15 K, x1 = 0.0375	–	1684.1	–
308.15 K, x1 = 0.056	–	1739.2	–
308.15 K, x1 = 0.0749	–	1779.7	–
308.15 K, x1 = 0.113	–	1827	–
308.15 K, x1 = 0.1833	–	1848.4	–
308.15 K, x1 = 0.2741	–	1835.3	–
308.15 K, x1 = 0.3671	–	1815.2	–
308.15 K, x1 = 0.489	–	1790.4	–
308.15 K, x1 = 0.6951	–	1763.8	–
308.15 K, x1 = 0.7708	–	1755.8	–
308.15 K, x1 = 0.9157	–	1743.1	–
308.15 K, x2 = 0.0082	–	1742.1	–
313.15 K, x1 = 0.002	1.02	–	–
313.15 K, x1 = 0.0165	4.87	–	–
313.15 K, x1 = 0.0177	–	–	0.917
313.15 K, x1 = 0.0181	–	1614.1	–
313.15 K, x1 = 0.028	6.18	–	–
313.15 K, x1 = 0.0375	–	1682.2	–
313.15 K, x1 = 0.0489	7.04	–	–
313.15 K, x1 = 0.056	–	1733.8	–
313.15 K, x1 = 0.0674	–	–	1.819
313.15 K, x1 = 0.07	6.95	–	–
313.15 K, x1 = 0.0749	–	1771.7	–
313.15 K, x1 = 0.0945	–	1799.6	–
313.15 K, x1 = 0.1122	6	–	–
313.15 K, x1 = 0.113	–	1816.6	–
313.15 K, x1 = 0.1833	–	1836.9	–
313.15 K, x1 = 0.1848	–	–	5.649
313.15 K, x1 = 0.2034	4.08	–	–
313.15 K, x1 = 0.2741	–	1823.4	–
313.15 K, x1 = 0.3671	–	1803.3	–
313.15 K, x1 = 0.4263	–	–	16.5
313.15 K, x1 = 0.489	–	1778.5	–
313.15 K, x1 = 0.6064	–	1760.4	–
313.15 K, x1 = 0.6951	–	1751.7	–
313.15 K, x1 = 0.7708	–	1743.9	–
313.15 K, x1 = 0.9339	0.558	–	–
313.15 K, x1 = 0.9357	–	–	68.4
313.15 K, x2 = 0.0082	–	1730	–
